The nature of series [1]: In vitro covalent binding to protein, human liver microsomes. It counts as in vitro ADME. The settings on record: in the presence of NADPH cofactor. Here is the method:
(§1) The propensity of AMG 009 metabolism to generate reactive metabolites was conducted in studies to evaluate in vitro covalent binding to protein by standardized methods (Day, et al., J. Pharmacol. Toxicol. Methods., 52, 278-285 (2005)).

Series [2] can be described thus: In vitro covalent binding to protein, rat liver microsomes. The settings on record: in the presence of NADPH cofactor. The series is classed as in vitro ADME. The procedure:
as §1

Series [3] concerns antigen-induced airway response. The experiment in a line: Sheep airway response model of asthma. The series is classed as in vivo. An excerpt:
(§2) The sheep and guinea pig models employed herein are disclosed in publications such as Abraham, W. M., Sheep Models of Allergic Bronchoconstriction)(in Allergy and Allergic Disease 2:1045 1977); Isenberg-Feig, H et al., Animal Models of Allergic Asthma (in Current Allergy and Asthma Reports 2003, 3:70-78); Abraham, W. M., et al. Am J Respir Crit. Care Med vol. 159. pp. 1205-1214, 1999; Abraham, W. M. et al, Am J Respir Crit. Care Med vol. 169. pp. 97-104, 2004; and Jones, T. R. et al Can. J. Physiol. Pharmacol. 73: 191-201 1995.

Series [4] deals with PGD2-induced airway constriction. Nature of the series: Guinea pig model of airway constriction. The series is classed as in vivo. The conditions noted are these: animals pretreated with aerosolized PGD2 at doses as high as 0.625 mg/mL, FIG. 5.
Excerpt: as §2, with “FIGS. 6A and 6B are graphs comparing the efficacy of AMG 009 (FIG. 6A) and Example Compound 14 (FIG. 6A) in the Guinea Pig Model of airway constriction. The” for “The”

A short description of series [5]: Hygroscopicity of polymorph. It counts as physicochemical.

Structures are written as SMILES. “Also recorded” adds a separate entry of the source.

Turning to `CCCCNC(=O)c1ccc(Oc2ccc(CC(=O)O)cc2OC)c(NS(=O)(=O)c2ccc(Cl)cc2Cl)c1` [AMG 009], the “covalent binding of radioactive equivalents to protein” value in series [1] and in series [2] was ~50 pmol equivalent/mg protein each time. For the same compound, the “antigen-induced late airway response” value in series [3] (7.5 mg/kg (multi-dose), FIG. 3A) is given as “inhibits”; in series [3] (7.5 mg/kg (single dose), FIG. 1A), “inhibits”; in series [3] (15 mg/kg (single dose), FIG. 2A), “inhibits”. The “antigen-induced development of airway hyperreactivity to carbochol” value in series [3] (7.5 mg/kg (multi-dose), FIG. 3B) is given as “inhibits”; in series [3] (7.5 mg/kg (single dose), FIG. 1B) it was “inhibits”; in series [3] (15 mg/kg (single dose), FIG. 2B) it was “inhibits”. The “allergen-induced recruitment of inflammatory cells to the lung (BAL)” value in series [3] (sheep airway response model) is listed as “blocked; also recorded: effective in blocking”. The “antigen-induced development of airway hyper-reactivity (AHR) to carbachol” value in series [3] (sheep airway response model) is reported as “blocks”. Also, the “antigen-induced late airway response (LAR)” value in series [3] (sheep airway response model) is listed as “inhibits”.

In the case of `CC(C)(C)NC(=O)c1ccc(Oc2cc(F)c(CC(=O)O)cc2Cl)c(NS(=O)(=O)c2ccc(C3CC3)cc2Cl)c1` [Example Compound 14, 2-(4-(4-(tert-butylcarbamoyl)-2-(2-chloro-4-cyclopropylphenylsulfonamido)phenoxy)-5-chloro-2-fluorophenyl)acetic acid], the “response in Guinea Pig Model” value in series [4] is given as “dose-dependent response”.

`CC(C)(C)NC(=O)c1ccc(Oc2cc(F)c(CC(=O)O)cc2Cl)c(NS(=O)(=O)c2ccc(C3CC3)cc2Cl)c1` [Form II, 2-(4-(4-(tert-butylcarbamoyl)-2-(2-chloro-4-cyclopropylphenylsulfonamido)phenoxy)-5-chloro-2-fluorophenyl)acetic acid]: in series [5], the hygroscopicity entry is “non hygroscopic”.

Source of the values: patent publication US8183293B2, “Phenyl acetic acid derivatives” (Amgen Inc., priority 2007, dated 2012).
